By IC50 is commonly meant the concentration needed to halve the response being measured. Read a high IC50 as a need for much substance.

pIC50: −log10 of the molar value. A value given as a limit tells only on which side of the number the result lay.

The subject of one data set is MV4-11 cells. Nature of the data set: MV4-11 Cell Cytotoxicity Assay. The note with it: human, MV4-11 cells, CCK-8. In kind it is cell-based, human. The source says:
% Inhibition=100−(D−B)/(S−B)*100%.
S: The absorbance of the maximum (cells with DMSO)
B: The absorbance of the minimum (medium with DMSO)

In the next data set the target is HSP90α (Homo sapiens, UniProt P07900). Nature of the data set: HSP90α Binding Fluorescent Polarization (FP) Assay. Particulars: competition with FITC-geldanamycin; read-out: HSP90 Binding Potency. The method, boiled down:
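Competitive FP assay in which compound displaces FITC-geldanamycin from recombinant HSP90α (28 μg/ml before addition) in BSA-containing buffer. Compounds in 3-fold series from 40 μM to 2.0 nM (dilution-plate concentrations), tested in duplicate. Readings after 30, 60 and 120 min at 25 °C; background-subtracted mP fitted to four-parameter log[inhibitor]-response curve.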

For the next data set, the target named is T1, BRD4 (BD1+BD2) (Homo sapiens, UniProt O60885).
T1 construct: 1.8 μg/ml recombinant BRD4 (BD1+BD2 domains) protein
The note with it: read-out: BRD4 Binding Potency.

Consider `Cc1sc2c(c1C)C(c1ccc(Cl)cc1)=N[C@@H](CC(=O)N[C@H](C)c1cccc(CN3CCC(Cc4ccc(-n5c(O)nnc5-c5cc(C(C)C)c(O)cc5O)cc4)CC3)c1)c1nnc(C)n1-2` [Compound 81, 2-((S)-4-(4-chlorophenyl)-2,3,9-trimethyl-6H-thieno[3,2-f][1,2,4]triazolo[4,3-a][1,4]diazepin-6-yl)-N—((R)-1-(3-((4-(4-(3-(2,4-dihydroxy-5-isopropylphenyl)-5-hydroxy-4H-1,2,4-triazol-4-yl)benzyl)piperidin-1-yl)methyl)phenyl)ethyl)acetamide, trifluoroacetic acid], for which the IC50 at 72 h with MV4-11 cells was less than 100 nM. Further, the pIC50 at HSP90α and at BRD4 (BD1+BD2) was 6.00 to 7.00 throughout.

In the data set on MV4-11 cells, `Cc1sc2c(c1C)C(c1ccc(Cl)cc1)=N[C@@H](CC(=O)N1CCC(Cc3ccc(CN(C)Cc4ccc(-n5c(O)nnc5-c5cc(C(C)C)c(O)cc5O)cc4)cc3)CC1)c1nnc(C)n1-2` [Compound 83, (S)-2-(4-(4-chlorophenyl)-2,3,9-trimethyl-6H-thieno[3,2-f][1,2,4]triazolo[4,3-a][1,4]diazepin-6-yl)-1-(4-(4-(((4-(3-(2,4-dihydroxy-5-isopropylphenyl)-5-hydroxy-4H-1,2,4-triazol-4-yl)benzyl)(methyl)amino)methyl)benzyl)piperidin-1-yl)ethan-1-one, trifluoroacetic acid] returned an IC50 at 72 h of less than 100 nM. The pIC50 was 6.00 to 7.00 on HSP90α and less than 6.00 at BRD4 (BD1+BD2).

For `Cc1sc2c(c1C)C(c1ccc(Cl)cc1)=N[C@@H](CC(=O)N1CCC(CN3CCC(Cc4ccc(-n5c(C(=O)NCC(F)(F)F)nnc5-c5cc(C(C)C)c(O)cc5O)cc4)CC3)CC1)c1nnc(C)n1-2` [Compound 85, (S)-4-(4-((1-((1-(2-(4-(4-chlorophenyl)-2,3,9-trimethyl-6H-thieno[3,2-f][1,2,4]triazolo[4,3-a][1,4]diazepin-6-yl)acetyl)piperidin-4-yl)methyl)piperidin-4-yl)methyl)phenyl)-5-(2,4-dihydroxy-5-isopropylphenyl)-N-(2,2,2-trifluoroethyl)-4H-1,2,4-triazole-3-carboxamide, formic acid], the IC50 at 72 h in the data set with MV4-11 cells is less than 100 nM. Moreover, the pIC50 on HSP90α and at BRD4 (BD1+BD2) was 6.00 to 7.00 throughout.

As to `CCc1cc(-c2nnc(C(=O)NCC(F)(F)F)n2-c2ccc(CC3CCN(CC4CCN(C(=O)C[C@@H]5N=C(c6ccc(Cl)cc6)c6c(sc(C)c6C)-n6c(C)nnc65)CC4)CC3)cc2)c(O)cc1O` [Compound 86, (S)-4-(4-((1-((1-(2-(4-(4-chlorophenyl)-2,3,9-trimethyl-6H-thieno[3,2-f][1,2,4]triazolo[4,3-a][1,4]diazepin-6-yl)acetyl)piperidin-4-yl)methyl)piperidin-4-yl)methyl)phenyl)-5-(5-ethyl-2,4-dihydroxyphenyl)-N-(2,2,2-trifluoroethyl)-4H-1,2,4-triazole-3-carboxamide, trifluoroacetic acid], in the data set with MV4-11 cells, the IC50 at 72 h is less than 100 nM. The pIC50 on HSP90α and at BRD4 (BD1+BD2) was 6.00 to 7.00 in each case.

With `CCNC(=O)c1nnc(-c2cc(CC)c(O)cc2O)n1-c1ccc(CC2CCN(CC3CCN(C(=O)C[C@@H]4N=C(c5ccc(Cl)cc5)c5c(sc(C)c5C)-n5c(C)nnc54)CC3)CC2)cc1` [Compound 87, (S)-4-(4-((1-((1-(2-(4-(4-chlorophenyl)-2,3,9-trimethyl-6H-thieno[3,2-f][1,2,4]triazolo[4,3-a][1,4]diazepin-6-yl)acetyl)piperidin-4-yl)methyl)piperidin-4-yl)methyl)phenyl)-N-ethyl-5-(5-ethyl-2,4-dihydroxyphenyl)-1H-1,2,414-triazole-3-carboxamide, trifluoroacetic acid], the IC50 at 72 h in the data set on MV4-11 cells is less than 100 nM. Further, the pIC50 on HSP90α and on BRD4 (BD1+BD2) was 6.00 to 7.00 throughout.

Regarding `CCc1cc(-c2nnc(O)n2-c2ccc(CC3CCN(CC4CCN(C(=O)C[C@@H]5N=C(c6ccc(Cl)cc6)c6c(sc(C)c6C)-n6c(C)nnc65)CC4)CC3)cc2)c(O)cc1O` [Compound 88, (S)-2-(4-(4-chlorophenyl)-2,3,9-trimethyl-6H-thieno[3,2-f][1,2,4]triazolo[4,3-a][1,4]diazepin-6-yl)-1-(4-((4-(4-(3-(5-ethyl-2,4-dihydroxyphenyl)-5-hydroxy-4H-1,2,4-triazol-4-yl)benzyl)piperidin-1-yl)methyl)piperidin-1-yl)ethan-1-one, formic acid], in the data set with MV4-11 cells, the IC50 at 72 h was less than 100 nM. Also, the pIC50 on HSP90α and on BRD4 (BD1+BD2) was 6.00 to 7.00 throughout.

Compound `Cc1sc2c(c1C)C(c1ccc(Cl)cc1)=N[C@@H](CC(=O)NCc1ccc(CN3CCC(Cc4ccc(-n5c(O)nnc5-c5cc(C(C)C)c(O)cc5O)cc4)CC3)cc1)c1nnc(C)n1-2` [Compound 89, (S)-2-(4-(4-chlorophenyl)-2,3,9-trimethyl-6H-thieno[3,2-f][1,2,4]triazolo[4,3-a][1,4]diazepin-6-yl)-N-(4-((4-(4-(3-(2,4-dihydroxy-5-isopropylphenyl)-5-hydroxy-4H-1,2,4-triazol-4-yl)benzyl)piperidin-1-yl)methyl)benzyl)acetamide, trifluoroacetic acid] showed an IC50 at 72 h in the data set on MV4-11 cells of less than 100 nM. For the same compound, the pIC50 on HSP90α and at BRD4 (BD1+BD2) was 6.00 to 7.00 throughout.

For the compound `CCNC(=O)c1nnc(-c2cc(C(C)C)c(O)cc2O)n1-c1ccc(CC2CCN(CC3CCN(C(=O)C[C@@H]4N=C(c5ccc(Cl)cc5)c5c(sc(C)c5C)-n5c(C)nnc54)CC3)CC2)cc1` [Compound 90, (S)-4-(4-((1-((1-(2-(4-(4-chlorophenyl)-2,3,9-trimethyl-6H-thieno[3,2-f][1,2,4]triazolo[4,3-a][1,4]diazepin-6-yl)acetyl)piperidin-4-yl)methyl)piperidin-4-yl)methyl)phenyl)-5-(2,4-dihydroxy-5-isopropylphenyl)-N-ethyl-4H-1,2,4-triazole-3-carboxamide], the IC50 at 72 h in the data set with MV4-11 cells is less than 100 nM. For the same compound, the pIC50 on HSP90α and on BRD4 (BD1+BD2) was 6.00 to 7.00 in each case.

On to `CCc1cc(-c2nnc(C(=O)NCC(F)(F)F)n2-c2ccc(CC3CCN(Cc4ccc(CNC(=O)C[C@@H]5N=C(c6ccc(Cl)cc6)c6c(sc(C)c6C)-n6c(C)nnc65)cc4)CC3)cc2)c(O)cc1O` [Compound 91, (S)-4-(4-((1-(4-((2-(4-(4-chlorophenyl)-2,3,9-trimethyl-6H-thieno[3,2-f][1,2,4]triazolo[4,3-a][1,4]diazepin-6-yl)acetamido)methyl)benzyl)piperidin-4-yl)methyl)phenyl)-5-(5-ethyl-2,4-dihydroxyphenyl)-N-(2,2,2-trifluoroethyl)-4H-1,2,4-triazole-3-carboxamide, trifluoroacetic acid], for which, in the data set on MV4-11 cells, the IC50 at 72 h was less than 100 nM. Besides, the pIC50 at HSP90α and at BRD4 (BD1+BD2) was 6.00 to 7.00 throughout.

Compound `Cc1sc2c(c1C)C(c1ccc(Cl)cc1)=N[C@@H](CC(=O)N(C)[C@H](C)c1ccc(CN3CCN(Cc4ccc(-n5c(O)nnc5-c5cc(C(C)C)c(O)cc5O)cc4)CC3)cc1)c1nnc(C)n1-2` [Compound 92, 2-((S)-4-(4-chlorophenyl)-2,3,9-trimethyl-6H-thieno[3,2-f][1,2,4]triazolo[4,3-a][1,4]diazepin-6-yl)-N—((R)-1-(4-((4-(4-(3-(2,4-dihydroxy-5-isopropylphenyl)-5-hydroxy-4H-1,2,4-triazol-4-yl)benzyl)piperazin-1-yl)methyl)phenyl)ethyl)-N-methylacetamide, trifluoroacetic acid] displayed an IC50 at 72 h in the data set with MV4-11 cells of 100 to 1000 nM. In addition, the pIC50 at HSP90α and at BRD4 (BD1+BD2) was less than 6.00 each time.

In turn, `Cc1sc2c(c1C)C(c1ccc(Cl)cc1)=N[C@@H](CC(=O)N(C)[C@H](C)c1ccc(CN3CCC(Cc4ccc(-n5c(O)nnc5-c5cc(C(C)C)c(O)cc5O)cc4)CC3)cc1)c1nnc(C)n1-2` [Compound 93, 2-((S)-4-(4-chlorophenyl)-2,3,9-trimethyl-6H-thieno[3,2-f][1,2,4]triazolo[4,3-a][1,4]diazepin-6-yl)-N—((R)-1-(4-((4-(4-(3-(2,4-dihydroxy-5-isopropylphenyl)-5-hydroxy-4H-1,2,4-triazol-4-yl)benzyl)piperidin-1-yl)methyl)phenyl)ethyl)-N-methylacetamide, trifluoroacetic acid] displayed an IC50 at 72 h in the data set with MV4-11 cells of less than 100 nM. The pIC50 at HSP90α and on BRD4 (BD1+BD2) was 6.00 to 7.00 each time.

Compound `Cc1sc2c(c1C)C(c1ccc(Cl)cc1)=N[C@@H](CC(=O)N1CCC(CN3CCC(Cc4ccc(-n5c(O)nnc5-c5cc(C(C)C)c(O)cc5O)cc4)CC3)CC1)c1nnc(C)n1-2` [Compound 94, (S)-2-(4-(4-chlorophenyl)-2,3,9-trimethyl-6H-thieno[3,2-f][1,2,4]triazolo[4,3-a][1,4]diazepin-6-yl)-1-(4-((4-(4-(3-(2,4-dihydroxy-5-isopropylphenyl)-5-hydroxy-4H-1,2,4-triazol-4-yl)benzyl)piperidin-1-yl)methyl)piperidin-1-yl)ethan-1-one, trifluoroacetic acid] yielded an IC50 at 72 h with MV4-11 cells of less than 100 nM. The pIC50 is greater than 7.00 at HSP90α and 6.00 to 7.00 at BRD4 (BD1+BD2).

`Cc1sc2c(c1C)C(c1ccc(Cl)cc1)=N[C@@H](CC(=O)NCCc1ccc(CN3CCC(Cc4ccc(-n5c(C(=O)NCC(F)(F)F)nnc5-c5cc(C(C)C)c(O)cc5O)cc4)CC3)cc1)c1nnc(C)n1-2` [Compound 95, (S)-4-(4-((1-(4-(2-(2-(4-(4-chlorophenyl)-2,3,9-trimethyl-6H-thieno[3,2-f][1,2,4]triazolo[4,3-a][1,4]diazepin-6-yl)acetamido)ethyl)benzyl)piperidin-4-yl)methyl)phenyl)-5-(2,4-dihydroxy-5-isopropylphenyl)-N-(2,2,2-trifluoroethyl)-4H-1,2,4-triazole-3-carboxamide, trifluoroacetic acid] had an IC50 at 72 h in the data set with MV4-11 cells of less than 100 nM. The pIC50 at HSP90α and on BRD4 (BD1+BD2) was 6.00 to 7.00 each time.

Source of the values: patent publication US20220168427A1 (Ranok Therapeutics (Hangzhou) Co. Ltd., priority 2019, published 2022).
